COc1ccc(C(=O)N[C@@H](CNC(=O)C2CCN(C3CCCC3)CC2)c2ccccc2)cc1
melting point: 253 to 257 °C

COc1ccc(C(=O)N[C@@H](CNC(=O)C2CCN(C3CCCCC3)CC2)c2ccccc2)cc1
melting point: 239 to 243 °C

CCN1CCC(C(=O)NC[C@H](NC(=O)c2ccc(OC)cc2)c2ccccc2)CC1
melting point: 245 to 251 °C

COc1ccc(C(=O)N[C@@H](CNC(=O)C2CCN(C3CCN(C)CC3)CC2)c2ccccc2)cc1
melting point: 252 to 259 °C

Source: US7053078B2, “Serine protease inhibitors” (Eli Lilly and Company, priority 2000, dated 2006)
